Assay results taken from US5656613A, “Treatment of hyperandrogenic conditions” (Merck & Co., Inc., priority 1995, dated 1997).
Read-outs that look alike come from different tables or passages of the source.

Experiments:
[1] = biological target: T1, human type 2 5α-reductase (Homo sapiens, UniProt P31213); assay: Structural requirements / inhibition constants and IC50 on type 2 enzyme (Examples 9 and 11); type: biochemical
T1 construct: host or cells: native human prostate tissue or recombinant from a baculovirus expression system; considered interchangeable
T1 sequence (P31213 1-254): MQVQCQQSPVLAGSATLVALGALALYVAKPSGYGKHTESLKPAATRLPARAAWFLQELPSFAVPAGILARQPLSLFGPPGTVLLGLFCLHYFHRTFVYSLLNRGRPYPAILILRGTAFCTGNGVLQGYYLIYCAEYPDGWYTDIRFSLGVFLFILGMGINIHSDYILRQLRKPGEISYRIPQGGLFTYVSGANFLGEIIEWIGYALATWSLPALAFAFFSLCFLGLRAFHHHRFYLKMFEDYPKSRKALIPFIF
Description: The human isozymes were employed exclusively in this research. The native isozymes were from scalp (type 1 ) or prostate (type 2) tissues, and the recombinant forms were produced by a baculovirus expression system. Except where specified, all data refer to the prostate (type 2) isozyme, the primary target of finasteride. All of the experiments described in this application were also conducted with the recombinant type 1 isozyme, either in parallel or for confirmation.
Permutations of three structural changes to finasteride were tested for their ability to abolish time-dependent inhibition. All compounds were tested at their apparent IC50 values at pH 5.5 and 37° C.
(§1) Following the procedures of Example 9, the compounds below were each tested with both human type 1 and type 2 enzyme.

[2] = biological target: T2, human type 1 5α-reductase (Homo sapiens, UniProt P18405); assay: Inhibition of human type 1 enzyme (Example 11); type: biochemical; settings: for IC50 / kon: Table 2, human type 1
T2 construct: made in house
T2 sequence (P18405 1-259): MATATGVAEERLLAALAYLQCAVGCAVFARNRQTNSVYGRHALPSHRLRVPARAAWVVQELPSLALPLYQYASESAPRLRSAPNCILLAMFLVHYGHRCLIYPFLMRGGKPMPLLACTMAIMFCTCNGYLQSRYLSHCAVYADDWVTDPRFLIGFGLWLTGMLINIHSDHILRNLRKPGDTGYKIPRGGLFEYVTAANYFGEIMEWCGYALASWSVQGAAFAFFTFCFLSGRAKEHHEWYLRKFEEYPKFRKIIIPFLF
Description: Permutations of three structural changes to finasteride were tested for their ability to abolish time-dependent inhibition. All compounds were tested at their apparent IC50 values at pH 5.5 and 37° C. Those displaying slow-binding inhibition are identified by kon values, which were determined as described for finasteride above. Those for which no time-dependent inhibition was found are identified by apparent Ki values.
as §1

[3] = Table 1, pH 5.5, 37° C., no time-dependent inhibition, read-out: Ki (apparent)
[4] = Table 3, human type 2, read-out: kon

SMILES | Ki [1, 3] [nM] | IC50 ([1]; Table 3, human type 2) [nM] | kon [1, 4] [M⁻¹ s⁻¹] | selectivity for human 5α-reductase type 1 [2] | IC50 [2] [nM] | kon [2] [M⁻¹ s⁻¹] | other results
CC(C)(C)NC(=O)[C@H]1CC[C@H]2[C@@H]3CC[C@H]4NC(=O)CC[C@]4(C)[C@H]3CC[C@]12C [Compound 2] | 8 | – | – | – | – | – | –
COC(=O)[C@H]1CC[C@H]2[C@@H]3CC[C@H]4NC(=O)C=C[C@]4(C)[C@H]3CC[C@]12C [Compound 3] | – | – | – | – | – | – | kon ([1]; Table 1, pH 5.5, 37° C.): 0.85 10^5 × M^-1 s^-1
COC(=O)[C@H]1CC[C@H]2[C@@H]3CC[C@H]4N(C)C(=O)C=C[C@]4(C)[C@H]3CC[C@]12C [Compound 4] | – | – | – | – | – | – | Ki [1]: 960 nM
C[C@]12C=CC(=O)N[C@@H]1CC[C@@H]1[C@@H]2CC[C@]2(C)[C@@H](C(=O)C3CCCCC3)CC[C@@H]12 [Compound 5] | – | – | – | – | – | – | kon ([1]; Table 1, pH 5.5, 37° C.): 28.00 10^5 × M^-1 s^-1
C[C@]12CCC(=O)N[C@@H]1CC[C@@H]1[C@@H]2CC[C@]2(C)[C@@H](C(=O)C3CCCCC3)CC[C@@H]12 [Compound 6] | 0.3 | – | – | – | – | – | –
CN1C(=O)C=C[C@]2(C)[C@H]3CC[C@]4(C)[C@@H](C(=O)C5CCCCC5)CC[C@H]4[C@@H]3CC[C@@H]12 [Compound 7] | 13 | – | – | – | – | – | –
CN1C(=O)CC[C@]2(C)[C@H]3CC[C@]4(C)[C@@H](C(=O)C5CCCCC5)CC[C@H]4[C@@H]3CC[C@@H]12 [Compound 8] | 0.2 | – | – | – | – | – | –
C[C@]12C=CC(=O)N[C@@H]1CC[C@@H]1[C@@H]2CC[C@]2(C)[C@@H](C(=O)NC3C4CC5CC(C4)CC3C5)CC[C@@H]12 (some centres unmarked) [Compound 9] | – | – | – | – | – | – | kon ([1]; Table 1, pH 5.5, 37° C.): 47.00 10^5 × M^-1 s^-1
CN1C(=O)CC[C@]2(C)[C@H]3CC[C@]4(C)[C@@H](C(=O)NC5C6CC7CC(C6)CC5C7)CC[C@H]4[C@@H]3CC[C@@H]12 (some centres unmarked) [Compound 10] | 0.5 | – | – | – | – | – | –

The next lines start with results.

Ki [1, 3] [nM] | IC50 ([1]; Table 3, human type 2) [nM] | kon [1, 4] [M⁻¹ s⁻¹] | selectivity for human 5α-reductase type 1 [2] | IC50 [2] [nM] | kon [2] [M⁻¹ s⁻¹] | SMILES | other results
– | > 10000 | 50 | 3,300 | 8 | 170000 | CC1C[C@H]2NC(=O)C=C[C@]2(C)[C@H]2CC[C@]3(C)CC(Oc4ccc(Cl)cc4)C[C@H]3[C@H]12 (some centres unmarked) [Compound 11] | –
– | 3500 | 140 | 1,200 | 2.8 | 170000 | C[C@]12C=CC(=O)N[C@@H]1CC[C@@H]1[C@@H]2CC[C@]2(C)C(CCC(=O)Nc3ccncc3)CC[C@@H]12 (some centres unmarked) [Compound 12] | –
– | 8400 | 140 | 1,200 | 3 | 180000 | C[C@]12C=CC(=O)N[C@@H]1CC[C@@H]1[C@@H]2CC[C@]2(C)C(CC#N)CC[C@@H]12 (some centres unmarked) [Compound 13] | –
– | 5400 | 130 | 1,600 | 1.8 | 200000 | COC(C)C1CC[C@H]2[C@@H]3CC[C@H]4NC(=O)C=C[C@]4(C)[C@H]3CC[C@]12C (some centres unmarked) [Compound 14] | –
